Data on five molecules can be found in patent US6440938B1, “Prevention and/or treatment of allergic conditions” (The Victoria University of Manchester, priority 1997, dated 2002).

One assay relates to MDCK cell monolayers. As to the kind of experiment: Mannitol permeability of MDCK cell monolayers exposed to HDM proteinase fractions. The settings on record: for inhibition of the action of the serine proteinase fraction on mannitol permeability: AEBSF 100μM, fraction 127 azocoll units ml^−1, 18 h (FIG. 3b); for effect of inhibitor alone on intrinsic epithelial permeability: inhibitor per se, no proteinase fraction (FIG. 3). It is filed as cell-based, canine. The protocol: (§1) Measurements of mannitol clearance were performed on confluent cell monolayers that had been propagated on 0.4μm pore diameter Costar Transwell™ inserts coated with an ungelled ultra-thin undercoat of Madrigel. Coating was achieved by addition of 250μl aliquots of Matrigel (diluted 1:500 v/v in EMEM) to the interior of the insert followed by ambient incubation for 60 min under aseptic conditions. The solution was then aspirated and the inserts gently washed with medium before the addition of a confluent density of cell suspension.
(§2) Cells (2-5×10^5 per cm^2 growth area) were plated onto Matrigel-coated inserts. We use the term ‘insert’ as meaning the filter unit containing the cells and the term ‘well’ as referring to the cavities of the tissue culture plate. To monitor growth and integrity, inserts were taken at random, washed gently in PBS and stained under subdued illumination with acridine orange and ethidium bromide (1mg ml^−1 each in PBS). Inserts were examined by fluorescence microscopy and were used only when confluence with high viability was attained.
(§3) At confluence, the medium was aspirated from the wells and replaced with serum- and bicarbonate-free EMEM buffered with 20 mM HEPES and containing 2 mM L-glutamine. The medium from the inserts was then gently removed and replaced with 300μl of serum-free EMEM containing [^14C]-mannitol (1μCi ml^−1 and 1 mg ml^−1 unlabelled mannitol in HEPES-buffered medium). The Transwell™ plates were then equilibrated for 30 min at 37° C. on a Luckham R100 orbital shaker. Triplicate 100μl aliquots of the unused labelled mannitol solution were sampled and their radioactivity content determined by liquid scintillation spectrometry (Beckman LS6000IC) following addition of 5 ml Opti-Fluor.
(§4) After the equilibration period, the inserts were placed in fresh wells containing 1 ml of serum-free HEPES buffered EMEM and incubated at 37° C. with continuous gentle shaking. The medium from the original wells was retained and its radioactivity content determined after the addition of 10 ml Opti-Fluor. […] At timed intervals, 20μl aliquots of the basolateral bathing fluid were removed and the amount of ^14C mannitol quantified as described above for the calculation of clearance volume.
Clearance estimates were made over 3-5h and were calculated according to the relationship: [formula]
(§5) Under conditions where diffusion is the sole means of transepithelial movement of the solute, dVprobe/dt approximates closely to the permeability-surface area product thus allowing estimation of the permeability of mannitol in the composite system of cells, filter, unstirred layers and protein coating (Pt). Epithelial permeability can be calculated from the measured variable by considering the Matrigel-coated filter and unstirred layers as a system of series permeabilities. Thus: [formula]
Unstirred layer thicknesses are independent of membrane permeability under ideal conditions thus P3 in equations (3) and (4) are identical. Subtracting equations (2) and (3) thus permits the calculation of the permeability of the epithelial monolayer (5). [formula]
Analysis of variance was performed after log transformation of the permeability data and probability values for the different treatments assigned using the least significant difference test. Data are presented as the geometric mean values with indicated standard errors of n experimental observations. Probability levels of P<0.05 were considered statistically significant.

Assay [1] has as its system intercellular junctions of MDCK cells (ZO-1, desmoplakin). The experiment in a line: Immunocytochemical visualization of intercellular junctions (ZO-1, desmoplakin). It is filed as cell-based, canine. How it is done:
To study the effects of proteinases and inhibitors on intercellular junctions, MDCK cells were cultured on coverslips and treated with the appropriate proteinase and/or inhibitor for the desired time period. The cells were fixed in ice-cold methanol before binding of rat anti-ZO-1 (mAb R40.76) (Stevenson et al., 1986; Anderson et al., 1988) and mouse anti-desmoplakin (mAb 11-5F) (Parrish et al., 1987). Indirect fluorescent antibody staining was performed using FITC- and TRITC-conjugated second antibodies. Microscopy was carried out using a Zeiss Axiovert microscope with x40 magnification oil immersion Fluar objective. Specimens were illuminated using excitation and emission filter sets for FITC and TRITC. Cells were photographed as described above.

In another assay the test system is Calu-3 cell monolayers. The experiment in a line: Mannitol permeability of Calu-3 cell monolayers exposed to HDM proteinase fractions. It is filed as cell-based, human. As to conditions: for inhibition of the permeability change caused by the serine proteinase fraction: E-64 10μM, fraction 94 azocoll units ml^−1, 18 h (FIG. 4b); for mannitol permeability: P<0.05, n=5. How it is done:
as §1, §2, §3, §4
Paracellular permeability of mannitol was determined in accordance with the procedure described in our copending U.K. Patent Application No. 9715058 and was calculated from measurements of clearance volume at defined time points. Clearance estimates were made over 3-5h and were calculated according to the relationship: [formula]
as §5
Unstirred layer thicknesses are independent of membrane permeability under ideal conditions thus P3 in equations (3) and (4) are identical. Subtracting equations (2) and (3) thus permits the calculation of the permeability of the epithelial monolayer (5). [formula] […]

A further assay has as its target T1, Der p 1 (Dermatophagoides pteronyssinus, UniProt P08176).
T1 sequence (P08176 99-320): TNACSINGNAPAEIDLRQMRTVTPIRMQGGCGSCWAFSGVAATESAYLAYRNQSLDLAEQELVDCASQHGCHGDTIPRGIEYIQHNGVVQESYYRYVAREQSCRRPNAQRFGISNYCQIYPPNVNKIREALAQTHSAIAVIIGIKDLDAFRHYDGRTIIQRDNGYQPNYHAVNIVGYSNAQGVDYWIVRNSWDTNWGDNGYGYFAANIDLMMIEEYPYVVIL
The settings on record: literature (Herbert et al. 1995; Hewitt et al. 1995, 1997); cited from earlier work.

The target of assay [2] is T2, HDM cysteine proteinase fraction (50% precipitate) (Dermatophagoides pteronyssinus, UniProt P08176).
T2 construct: tissue Commonwealth Serum Laboratory, Parkville, Australia; host or cells: spent culture medium of D. pteronyssinus, 50% saturated ammonium sulphate pellet
T2 sequence (P08176 99-320): T1 sequence (P08176 99-320)
As to the kind of experiment: Enzyme degradation of chromogenic substrates by the 50% ammonium sulphate precipitate. It is filed as biochemical, D. pteronyssinus. As to conditions: data not shown. The text has this: HDM proteinase allergens have not yet been prepared in catalytically competent form by recombinant cellular expression of the mature enzyme protein. For convenience, and to enable future large scale screening of potential inhibitors in the absence of catalytically active recombinant proteins, we sought to separate the cysteine and serine proteinase activity by simple biochemical fractionation of spent medium in which HDM had been grown. During culture the HDM release allergens into the medium resulting in the accumulation of proteins suitable for purification. Spent medium from cultures of D. pteronyssinus (Commonwealth Serum Laboratory, Parkville, Australia) was dissolved in 5 volumes of phosphate buffered saline and then centrifuged at 48,400×g and 4° C. for 20 min. Ammonium sulphate was added gradually to the stirred supernatant at 4° C. to achieve a 50% saturated solution. After centrifugation (48,400×g, 20 min, 4° C.) the pellet, found by enzymatic assay to be enriched in cysteine proteinase activity, was redissolved in a minimum volume of distilled water. […] Protein content of the extracts was measured using the […] technique with serum albumin as standard (Smith et al, 1985). Proteinase activity was measured using the Azocoll degradation assay as described elsewhere (Herbert et al., 1995; Chavira et al., 1984). […]

Another assay deals with Calu-3 cells. As to the kind of experiment: DNA fragmentation (agarose gel), Calu-3 cells. As to conditions: BB-250 5μM, E-64 10μM; for inhibition of cysteine proteinase fraction-induced DNA fragmentation: fraction 80 azocoll units ml^−1 (FIG. 7b). It is filed as cell-based, human. How it is done: Cells were plated on 60×15 mm petri dishes and grown for 2-4 days in serum-containing EMEM under tissue culture conditions in a 5% CO2 atmosphere. Cells were then exposed to treatments in serum-free EMEM containing 20 mM HEPES whilst under aerobic incubation at 37° C. At defined time points, cells were harvested with a scraper and pooled with detached cells in the supernatant. Cells were centrifuged at 550×g for 5 min and their DNA extracted (Nucleon II, Scotlab, Coatbridge, Stratchclyde). The extracted DNA was resuspended in 100μl TE buffer (10 mM Tris-HCL and 1 mM Na2EDTA) overnight at room temperature and its purity determined spectrophotometrically. Equal amounts of DNA were applied in 4:1 ratio with sample buffer (0.25% bromophenol blue and 40% w/v sucrose in water) to each lane of 2% (w/v) agarose gels and electrophoresis performed at 50V for 2-3h in TAE buffer (0.04M Tris-acetate and 0.001M EDTA). Bands of DNA in the gels (which had ethidium bromide incorporated into them) were visualized by ultra-violet light.

The subject of another assay is ICE/ced-3 caspase family. The settings on record: literature; cited from earlier work.

In the case of `Cl.NCCc1ccc(S(=O)(=O)F)cc1` [AEBSF, 4-(2-aminoethyl)-benzenesulphonyl fluoride hydrochloride], in the assay with MDCK cell monolayers, the “inhibition of the action of the serine proteinase fraction on mannitol permeability” value is listed as “inhibited” and the “effect of inhibitor alone on intrinsic epithelial permeability” value (shortened to “effect of inhibitor alone”) is on record as “Neither inhibitor per se exerted any observable effect”. In addition, the “inhibition of serine proteinase fraction-dependent changes in ZO-1/desmoplakin staining” value in assay [1] (AEBSF 100μM, fraction 94 azocoll units ml^−1) is listed as “inhibited”. In addition, the “inhibition of the action of the cysteine proteinase fraction on mannitol permeability” value with Calu-3 cell monolayers (Calu-3, AEBSF 100μM, fraction 80 azocoll units ml^−1, 18 h (FIG. 4a)) is “failed to inhibit”. Also, in the assay on Calu-3 cell monolayers (Calu-3), the “inhibition of the permeability change caused by the serine proteinase fraction” value was “ablated”. Also, the mannitol permeability in the assay with Calu-3 cell monolayers (Calu-3 treated with serine proteinase fraction plus AEBSF) is reported as 10.20±0.01 ×10−6 cm s^−1.

Regarding `CC(C)C[C@H](NC(=O)[C@H]1O[C@@H]1C(=O)O)C(=O)NCCCCN=C(N)N` (relative stereo) [E-64, L-trans-epoxysuccinyl-leucylamido-(4-guanidino)-butane], the “inhibition of the effect of the cysteine proteinase fraction on mannitol permeability” value in the assay on MDCK cell monolayers (E-64 10μM, fraction 80 azocoll units ml^−1, 18 h (FIG. 3a)) is “attenuated”. For the same molecule, the “effect of inhibitor alone” value in the assay on MDCK cell monolayers is “no observable effect”. For the same molecule, on Der p 1, the “inhibition of Der p 1 activity / effects” value is “sensitive to inhibition”. In assay [1] (E-64 10μM, fraction 80 azocoll units ml^−1), the “inhibition of cysteine proteinase fraction-dependent changes in ZO-1/desmoplakin staining” value was “inhibited”. The “catalytic activity of the 50% precipitate” value in assay [2] is listed as “inhibitable”. Besides, the “inhibition of cysteine proteinase fraction-induced DNA fragmentation” value in the assay on Calu-3 cells is listed as “inhibited”. For the same molecule, in the assay with Calu-3 cell monolayers (Calu-3), the “inhibition of the permeability change caused by the serine proteinase fraction” value is recorded as “did not inhibit”. For the same molecule, in the assay on Calu-3 cell monolayers (Calu-3 treated with cysteine proteinase fraction plus E-64), the mannitol permeability was 4.84±0.32 ×10^−6 cm s^−1. Also, in the assay with ICE/ced-3 caspase family, the “sensitivity of ICE/ced-3 caspases to the inhibitor” value is “insensitive”.

Take `N=C(N)c1ccc(CS(=O)(=O)F)cc1` [APMSF]: on Der p 1, the “inhibition of Der p 1 activity / effects” value is reported as “reported to be inhibited”.

Take `CNC(=O)[C@H](Cc1ccccc1)NC(=O)[C@H](CC(C)C)[C@H](CS(=O)(=O)c1cccs1)C(=O)NO` [BB-250, [4-(N-hydroxyamino)-2R-isobutyl-3S-(thiophen-2-yl-sulphonylmethyl)succinyl]-L-phenylalanine-N-methylamide]: the “inhibition of cysteine proteinase fraction-induced DNA fragmentation” value with Calu-3 cells is recorded as “attenuated”. In the assay with Calu-3 cells (fraction 94 azocoll units ml^−1 (FIG. 7b)), the “inhibition of serine proteinase fraction-induced DNA fragmentation” value is listed as “attenuated”.

B1: SBTI: serine proteinase inhibitor; abbreviation not expanded in the patent (protein, UniProt P01070 25-205, looked up)
Trypsin inhibitor A: DFVLDNEGNPLENGGTYYILSDITAFGGIRAAPTGNERCPLTVVQSRNELDKGIGTIISSPYRIRFIAEGHPLSLKFDSFAVIMLCVGIPTEWSVVEDLPEGPAVKIGENKDAMDGWFRLERVSDDEFNNYKLVFCPQQAEDDKCGDIGISIDHDDGTRRLVVSKNKPLVVQFQKLDKESL
B1: in the assay on MDCK cell monolayers, the “inhibition of the action of the serine proteinase fraction on mannitol permeability” value is “less effectively” and the “effect of inhibitor alone” value is “Neither inhibitor per se exerted any observable effect”.
